What follows are compounds tested against SARS-CoV-2 3CL^pro (Severe acute respiratory syndrome coronavirus 2, UniProt P0DTD1) (assay: SARS-CoV-2 3CLpro enzyme inhibition assay (fluorophore-quencher peptide substrate)). Conditions: 200 nM 3CLpro, 20 min preincubation, 30 min at 25°C, triplicate.
Assay type: biochemical
Experimental: Fluorescence intensity was measured on a microplate reader (λex = 485 nm; λem = 528 nm). Experiment was performed in triplicate.
`O=C(N[C@@H](c1cccc(F)c1)C(F)(F)F)[C@@H](c1cnccn1)N(C(=O)c1ccco1)c1ccc(C2CCCCC2)cc1` [Hit 1] was tested, and the IC50 was 17 ± 3 nM. With `O=C(NCc1c(F)c(F)c(F)c(F)c1F)[C@@H](c1cccnc1)N(C(=O)c1ccno1)c1ccc(-c2cccs2)cc1` [Hit 2] the IC50 was 830 ± 110 nM. In the case of `C[C@H](NC(=O)[C@@H](c1cccnc1)N(C(=O)c1ccno1)c1ccc(C2CCCCC2)cc1)c1cccc(F)c1F` [Hit 3], the IC50 is reported as 90 ± 20 nM. `O=C(NCc1ccccc1)[C@@H](c1cccnc1)N(C(=O)c1ccco1)c1ccc(-c2cccs2)cc1` [Hit 4] was tested, and the IC50 was 750 ± 40 nM. `O=C(Nc1ccc(N(Cc2ccsc2)C(=O)Cn2nnc3ccccc32)cc1)C1CC1` [ML300, reference compound] gave an IC50 of 4010 ± 660 nM.

Same assay, conditions: ratio of IC50 values vs ML300
`O=C(N[C@@H](c1cccc(F)c1)C(F)(F)F)[C@@H](c1cnccn1)N(C(=O)c1ccco1)c1ccc(C2CCCCC2)cc1` [Hit 1] was tested, and the “inhibition activity, times stronger than that of ML300” value was “about 236 times”.

From paper PMC9715617 (Frontiers in Pharmacology, 2022)
